According to US3941776A, “Resolution/racemization of aminolactam compounds” (Allied Chemical Corporation, priority 1974, dated 1976):

Tests used:
Assay type in all cases: physicochemical
[1] = Racemization of L-ACL in ACL/NiCl2 solution with sodium methoxide (Example 1, Table 1); settings: 0.20 M NiCl2
Method: A sample of 0.702g. […] The molar ratio of ACL to NiCl2 in this solution is 3.5. […] Samples of 2.0 ml each of the solution were sealed and placed in a 60°C. (50° and 40°) bath. At different time intervals the samples were taken from the bath to determine the extent of racemization of L-ACL. To this end each sample was quenched and adjusted to 5.0 ml with 1N.HCl. […] The latter correlation is indicative of the importance of rendering Ni^+^+ coordinately saturated. It should be noted that even at temperatures as low as 40°C. suitable reaction rates are obtained and, in general, a temperature range of about 40° to about 95°C. may be used.

[2] = Racemization of L-ACL with NiCl2 and base from ion exchange resin (Example 4)
Method: a. A 20 ml ethanol solution containing 8 mmol (D,L-ACL)3 NiCl2 and 8 mmol D,L-ACL was passed through a strongly basic [quaternary ammonium hydroxide type (ANGA-542*)] ion exchange column in about 1 hour. The complex solution was followed by 15 ml ethanol and the combined eluent brought to 50 ml in a volumetric flask.
A reaction solution was prepared from 0.518g (2 mmol) of 50% L-ACL (88% optically pure) in ethanol, 1.13g (4.4 mmol) 50% D,L-ACL in ethanol and 2.48 ml 0.645 M in NiCl2.H2 O in ethanol. This was brought to reflux and 2.5 ml of the solution described above was added. The final quantities thus are total ACL 8 mmol, Ni^+^2, 2 mmol, ^-OH (free or bound to Ni^+^2), 0.3 mmol and Cl^-. 3.7 Mmol, in a total volume of 6.7 ml.
b. A 10 ml sample of 0.90 M NiCl2. H2 O in ethanol, was passed through a weakly basic ion exchange resin (IR-45, supplied by Rohm and Haas Company). The eluent had pH 5.5 (measured with a glass electrode in ethanol; the pH of untreated NiCl2 solution was about 3.7). A 1 ml aliquot of the eluent, containing 0.15 m atoms of Ni^+^+, was mixed with 78 mg (0.60 mmols) of L-ACL in 1 ml methanol. The mixture was heated in a sealed vial at 80°C. for 30 minutes.

[3] = Racemization of L-ACL.HCl/L-ACL with catalysts (Examples 13-42, Table IV); settings: 15 minutes at 70°C, Cu^II (5-nitrosalicylaldehyde)2, H2O/dimethylformamide 20/80
Method: A solution containing 0.160g (1.25 mmol) L-ACL, 0.206g (1.25 mmol) L-ACL.HCl and […] of Cu^II (5-nitrosalicylaldehyde)2 in 20/80 (v/v) H2 O/dimethylformamide (10 ml overall volume) was heated for 15 minutes at 70°C.
Following the procedure of Example 13, racemization of L-ACL.HCl was conducted in the presence of various catalysts and under various conditions of temperature and concentration; the data is summarized in Table IV.

Structure (SMILES)	Racemization Rate t1/2 ([1]; ACL/NiCl2 mole ratio 3.5, Ethanol, 60°C) [h]	Racemization Rate t1/2 ([1]; ACL/NiCl2 mole ratio 3.5, Methanol, 40°C) [h]	Racemization Rate t1/2 ([1]; ACL/NiCl2 mole ratio 3.5, Methanol, 50°C) [h]	Racemization Rate t1/2 ([1]; ACL/NiCl2 mole ratio 4, Ethanol, 60°C) [h]	Racemization Rate t1/2 ([1]; ACL/NiCl2 mole ratio 4, Methanol, 40°C) [h]	Racemization Rate t1/2 ([1]; ACL/NiCl2 mole ratio 4, Methanol, 50°C) [h]	Racemization Rate t1/2 ([1]; ACL/NiCl2 mole ratio 5, Ethanol, 60°C) [h]	Racemization Rate t1/2 ([1]; ACL/NiCl2 mole ratio 5, Methanol, 40°C) [h]	Racemization Rate t1/2 ([1]; ACL/NiCl2 mole ratio 5, Methanol, 50°C) [h]	Racemization Rate t1/2 ([1]; ACL/NiCl2 mole ratio 6, Ethanol, 60°C) [h]	Racemization Rate t1/2 ([1]; ACL/NiCl2 mole ratio 6, Methanol, 40°C) [h]	Racemization Rate t1/2 ([1]; ACL/NiCl2 mole ratio 6, Methanol, 50°C) [h]	extent of racemization ([2]; 80°C, 30 minutes, NiCl2 eluent from IR-45 resin, methanol)	t1/2 of racemization ([2]; ethanol, reflux (~80°C), NiCl2, base from ANGA-542 resin) [h]	extent of racemization [3]
N[C@H]1CCCCNC1=O [L-ACL, L-α-amino-ε-caprolactam]	1.17	16.73	5.67	0.717	12.8	4.33	0.433	9.72	2.7	0.367	10.2	2.83	completely racemized	0.175	–
Cl.N[C@H]1CCCCNC1=O [L-ACL.HCl, L-α-amino-ε-caprolactam hydrochloride]	–	–	–	–	–	–	–	–	–	–	–	–	–	–	complete racemization
